Assay results from US20020037311A1, “Transdermal delivery of lasofoxifene” (priority 2000, published 2002).
Where “and” joins values, the source holds several entries; their conditions need not be identical. Identical values can stand only once. Like-named read-outs stand apart in the source and are kept apart here.

Assays:
[1] = postmenopausal women; cited from earlier work
[2] = In vitro skin flux, hydroalcoholic gels (liquid reservoir), finite occluded dose, modified Franz diffusion cells; assay type: in vitro ADME, human; conditions: for Average Daily Flux of CP-336,156 over 7 Days: Example 3 gel EtOH/H2O/Gly/GMO/ML 50/15/30/2.5/2.5% v/v, CP-336,156 tartrate salt 2 mg/ml; for Average Daily Flux of CP-336,156 over 6 Days: Example 4 gel EtOH/H2O/Gly/GMO/LA 30/38/30/1/1% v/v (two-phase dispersion); for Average Daily Flux of CP-336,156 over 6 Days / Average Daily flux over 7 Days, Unenhanced 0% GMO / Average Daily flux over 7 Days, 0.03% GMO / Average Daily flux over 7 Days, 0.06% GMO / Average Daily flux over 7 Days, 0.12% GMO: CP-336,156 tartrate salt 6 mg/ml; for Average Daily flux over 7 Days, Unenhanced 0% GMO: Example 5 gel EtOH/IPA/H2O/Gly 26.25/8.75/35/30% v/v; for Average Daily flux over 7 Days, 0.03% GMO / Average Daily flux over 7 Days, 0.06% GMO / Average Daily flux over 7 Days, 0.12% GMO: Example 5 gel EtOH/IPA/H2O/Gly; for Average Daily flux over 7 Days, 0.03% GMO: 0.03% v/v glycerol monooleate; for Average Daily flux over 7 Days, 0.06% GMO: 0.06% v/v glycerol monooleate; for Average Daily flux over 7 Days, 0.12% GMO: 0.12% v/v glycerol monooleate (cloudy dispersion); for E = Enhancement Factor = Average Daily Flux from Enhanced Formulation/Average Daily Flux from Unenhanced Control: Example 5 gel
Procedure: Hydroalcoholic gels were prepared on a 10 ml scale as follows. Ethyl alcohol (190 proof ethanol), water, glycerin, enhancer and drug were combined in the appropriate proportions and mixed for several hours. The gelling agent (hydroxypropylcellulose) was added and the solution was mixed briefly at high shear, then mixed at low shear until a gel was formed.
(§1) In vitro skin flux studies were conducted using human cadaver epidermal membrane in modified Franz non-jacketed diffusion cells. The epidermal membrane (stratum corneum and epidermis) was separated from whole skin (epidermal membrane and dermis) by the method of Kligman and Christopher (Arch. Dermatol. 88:702 (1963)). This method involves the exposure of the full-thickness skin to water at 60.degree C. for a time period of 60 seconds. After this period, the epidermal membrane was gently peeled off the dermis and stored for later use in aluminum foil at −5° C.
Permeation experiments with hydroalcoholic gels were performed using finite occluded doses. The occluded dose is an appropriate in vitro model for the application of a transdermal patch drug delivery system containing a liquid or gel reservoir.
Occluded dosing experiments were set-up according to the following procedure. Prior to skin permeation experiments, the epidermal membrane was cut to an appropriate size and placed between the two halves of the diffusion cell with the epidermal side facing the receiver compartment. The receiver compartment was filled with an appropriate solution then the diffusion cell was placed in a circulating water bath calibrated to maintain the temperature of the skin surface at 32° C. and allowed to hydrate overnight. After hydration, a sample of the gel (75 µl) was pipetted into a cavity created by placing a polyethylene washer over the stratum corneum surface. This cavity was covered with an occlusive backing film which was clamped in place.
(§2) The following sampling procedure was used for all dosage forms. At predetermined sampling time points, the entire contents of the receiver compartment were collected for drug quantitation and the receiver compartment was filled with fresh solution, taking care to eliminate any air bubbles at the skin/solution interface. […]

[3] = female and male rats; cited from earlier work
[4] = male rats; cited from earlier work
[5] = In vitro skin flux, adhesive matrix systems, modified Franz diffusion cells; assay type: in vitro ADME, human; conditions: for Average Daily Flux of CP-336,156 over 7 Days: Example 1 matrix TSR 58 adhesive/triacetin/CP-336,156 84/10/6% w/w; for Cumulative Permeation of CP-336,156 over 24 Hours, Enhanced 1.5% w/w NaLG: Example 2 matrix Morstik 214, 3% w/w CP-336,156 tartrate salt + 1.5% w/w sodium lauroyl glycolate; for Cumulative Permeation of CP-336,156 over 24 Hours, Unenhanced: Example 2 matrix Morstik 214 water-based adhesive, 3% w/w CP-336,156 tartrate salt, no enhancer; for Enhancement Factor Q24 enhanced/Q24 unenhanced: Example 2 matrix, 1.5% w/w NaLG vs unenhanced
Procedure: Pressure sensitive adhesive matrix systems prepared according to the teachings of U.S. Pat. No. 5,952,000, incorporated herein by reference. First, the solids content of the adhesive solution (water or organic solvent based) was determined by placing a known weight of solution in a weighed aluminum dish and evaporating the solvents overnight in a 70. degree. C. convection oven. The solid adhesive content of the solution was calculated by dividing the adhesive solid weight after drying by the initial total solution weight. Next, a weighed quantity of adhesive solution was added to a glass bottle and the drug substance, permeation enhancer, and other excipients were weighed and added to the adhesive solution in a quantity necessary to achieve the desired dry matrix film composition. The solution containing the adhesive polymer, drug substance, and other excipients as necessary was then mixed overnight. After mixing, approximately 8 ml of the solution was dispensed on a silanized polyester release liner and film cast using a casting knife with a gap size appropriate to achieve a final dried thickness of approximately 0.05 mm. The cast film was dried in a 70° C. convection oven until all solvents had evaporated to yield a dried matrix (15 minutes for organic solvent based adhesives, 30 minutes for water emulsion based adhesives). Finally, an 0.08 mm thick occlusive polyethylene backing film was laminated onto the dried adhesive matrix, and these systems were then used to conduct in vitro skin flux experiments as described below.
as §1
Prior to each permeation experiment with a matrix system, the matrix system was cut into a circular sample of 0.7 cm^2 area and the silanized release liner was removed. The adhesive was affixed to the stratum corneum side of the thawed epidermal membrane which was then cut to an appropriate size and clamped in place between the two halves of the diffusion cell with the stratum corneum facing the donor compartment. The receiver compartment was filled with water or an aqueous solution appropriate to maintain sink conditions for the drug. All receiver solutions included 0.02% (w/w) sodium azide (NaN3) to inhibit bacterial growth. The diffusion cell was placed in a temperature controlled circulating water bath calibrated to maintain the surface temperature of the skin at 32° C. The receiver compartment was constantly stirred by a magnetic stir-bar in the receiver compartment agitated by a magnetic stirring module placed under the water bath.
as §2

[6] = ovariectomized rats; cited from earlier work
[7] = compared with estradiol therapy; cited from earlier work
[8] = second skin source (name not given), 5 cells
[9] = third skin source (name not given), 5 cells

- Average Daily Flux of CP-336,156 over 7 Days ([2]; All Skins, Mean ± SEM): 21.6 ± 2.3 ug/cm^2/day
- Average Daily Flux of CP-336,156 over 7 Days ([2]; Skin 3A, 8 cells): 174 ± 7.7 ug/cm^2/day
- Average Daily Flux of CP-336,156 over 7 Days ([2]; Skin 3B, 4 cells): 15.3 ± 8.7 ug/cm^2/day
- Average Daily Flux of CP-336,156 over 7 Days ([2]; Skin 3C, 8 cells): 23.9 ± 11.0 ug/cm^2/day
- Average Daily Flux of CP-336,156 over 7 Days ([2]; Skin 3D, 4 cells): 27.9 ± 2.2 ug/cm^2/day
- Average Daily Flux of CP-336,156 over 7 Days ([2]; Skin 3E, 4 cells): 21.2 ± 9.9 ug/cm^2/day
- Average Daily Flux of CP-336,156 over 7 Days ([2]; Skin 3F, 4 cells): 15.4 ± 7.2 ug/cm^2/day
- Average Daily Flux of CP-336,156 over 7 Days ([2]; Skin 3G, 4 cells): 30.3 ± 4.9 ug/cm^2/day
- Average Daily Flux of CP-336,156 over 6 Days ([2]; All Skins, Mean ± SEM): 38.3 ± 3.3 ug/cm^2/day
- Average Daily Flux of CP-336,156 over 6 Days ([2]; Skin 4A, 5 cells): 42.4 ± 15.5 ug/cm^2/day
- Average Daily Flux of CP-336,156 over 6 Days ([2]; Skin 4B, 5 cells): 36.3 ± 5.2 ug/cm^2/day
- Average Daily Flux of CP-336,156 over 6 Days ([2]; Skin 4C, 5 cells): 36.2 ± 14.9 ug/cm^2/day
- Average Daily flux over 7 Days, Unenhanced 0% GMO ([2]; All Skins): 11.8 ug/cm^2/24 h
- Average Daily flux over 7 Days, Unenhanced 0% GMO ([2]; Skin 5A, n = 2-5 cells): 6.4 ug/cm^2/24 h
- Average Daily flux over 7 Days, Unenhanced 0% GMO ([2]; Skin 5B, n = 2-5 cells): 17.4 ug/cm^2/24 h
- Average Daily flux over 7 Days, Unenhanced 0% GMO ([2]; Skin 5C, n = 2-5 cells): 11.6 ug/cm^2/24 h
- Average Daily flux over 7 Days, 0.03% GMO ([2]; All Skins): 33.0 ug/cm^2/24 h
- Average Daily flux over 7 Days, 0.03% GMO ([2]; Skin 5A, n = 2-5 cells): 7.1 ug/cm^2/24 h
- Average Daily flux over 7 Days, 0.03% GMO ([2]; Skin 5B, n = 2-5 cells): 69.5 ug/cm^2/24 h
- Average Daily flux over 7 Days, 0.03% GMO ([2]; Skin 5C, n = 2-5 cells): 22.4 ug/cm^2/24 h
- Average Daily flux over 7 Days, 0.06% GMO ([2]; All Skins): 35.6 ug/cm^2/24 h
- Average Daily flux over 7 Days, 0.06% GMO ([2]; Skin 5A, n = 2-5 cells): 11.6 ug/cm^2/24 h
- Average Daily flux over 7 Days, 0.06% GMO ([2]; Skin 5B, n = 2-5 cells): 74.9 ug/cm^2/24 h
- Average Daily flux over 7 Days, 0.06% GMO ([2]; Skin 5C, n = 2-5 cells): 20.3 ug/cm^2/24 h
- Average Daily flux over 7 Days, 0.12% GMO ([2]; All Skins): 41.8 Ug/cm^2/24 h
- Average Daily flux over 7 Days, 0.12% GMO ([2]; Skin 5A, n = 2-5 cells): 16.8 Ug/cm^2/24 h
- Average Daily flux over 7 Days, 0.12% GMO ([2]; Skin 5B, n = 2-5 cells): 85.2 Ug/cm^2/24 h
- Average Daily flux over 7 Days, 0.12% GMO ([2]; Skin 5C, n = 2-5 cells): 23.6 Ug/cm^2/24 h
- E = Enhancement Factor = Average Daily Flux from Enhanced Formulation/Average Daily Flux from Unenhanced Control ([2]; 0.03% GMO vs 0% GMO, All Skins): 2.34 ± 0.37
- E = Enhancement Factor = Average Daily Flux from Enhanced Formulation/Average Daily Flux from Unenhanced Control ([2]; 0.03% GMO vs 0% GMO, Skin 5A): 1.12
- E = Enhancement Factor = Average Daily Flux from Enhanced Formulation/Average Daily Flux from Unenhanced Control ([2]; 0.03% GMO vs 0% GMO, Skin 5B): 3.99
- E = Enhancement Factor = Average Daily Flux from Enhanced Formulation/Average Daily Flux from Unenhanced Control ([2]; 0.03% GMO vs 0% GMO, Skin 5C): 1.93
- E = Enhancement Factor = Average Daily Flux from Enhanced Formulation/Average Daily Flux from Unenhanced Control ([2]; 0.06% GMO vs 0% GMO, All Skins): 2.62 ± 0.43
- E = Enhancement Factor = Average Daily Flux from Enhanced Formulation/Average Daily Flux from Unenhanced Control ([2]; 0.06% GMO vs 0% GMO, Skin 5A): 1.81
- E = Enhancement Factor = Average Daily Flux from Enhanced Formulation/Average Daily Flux from Unenhanced Control ([2]; 0.06% GMO vs 0% GMO, Skin 5B): 4.30
- E = Enhancement Factor = Average Daily Flux from Enhanced Formulation/Average Daily Flux from Unenhanced Control ([2]; 0.06% GMO vs 0% GMO, Skin 5C): 1.74
- E = Enhancement Factor = Average Daily Flux from Enhanced Formulation/Average Daily Flux from Unenhanced Control ([2]; 0.12% GMO vs 0% GMO, All Skins): 3.18 ± .36
- E = Enhancement Factor = Average Daily Flux from Enhanced Formulation/Average Daily Flux from Unenhanced Control ([2]; 0.12% GMO vs 0% GMO, Skin 5A): 2.62
- E = Enhancement Factor = Average Daily Flux from Enhanced Formulation/Average Daily Flux from Unenhanced Control ([2]; 0.12% GMO vs 0% GMO, Skin 5B): 4.89
- E = Enhancement Factor = Average Daily Flux from Enhanced Formulation/Average Daily Flux from Unenhanced Control ([2]; 0.12% GMO vs 0% GMO, Skin 5C): 2.03
- Average Daily Flux of CP-336,156 over 7 Days ([5]; All Skins, Mean ± SEM): 8.6 ± 1.2 µg/cm²/day
- Average Daily Flux of CP-336,156 over 7 Days ([5]; Skin 1B, 4 diffusion cells): 5.7 ± 0.8 µg/cm²/day
- Average Daily Flux of CP-336,156 over 7 Days ([5]; Skin 1C, 8 diffusion cells): 9.2 ± 2.9 µg/cm²/day
- Average Daily Flux of CP-336,156 over 7 Days ([5]; Skin 1D, 4 diffusion cells): 13.4 ± 7.8 µg/cm²/day
- Average Daily Flux of CP-336,156 over 7 Days ([5]; Skin 1E, 4 diffusion cells): 10.2 ± 3.4 µg/cm²/day
- Average Daily Flux of CP-336,156 over 7 Days ([5]; Skin 1F, 4 diffusion cells): 5.1 ± 1.1 µg/cm²/day
- Average Daily Flux of CP-336,156 over 7 Days ([5]; Skin 1G, 4 diffusion cells): 11.4 ± 2.4 µg/cm²/day
- Average Daily Flux of CP-336,156 over 7 Days ([5]; Skin IA, 7 diffusion cells): 5.5 ± 3.4 µg/cm²/day
- Cumulative Permeation of CP-336,156 over 24 Hours, Enhanced 1.5% w/w NaLG ([5]; All Skins Mean ± SEM): 1.42 ± 1.05 μg/cm^2/24 h
- Cumulative Permeation of CP-336,156 over 24 Hours, Enhanced 1.5% w/w NaLG ([5]; Skin 2A, 5 cells): 0.30 ± 0.12 μg/cm^2/24 h
- Cumulative Permeation of CP-336,156 over 24 Hours, Enhanced 1.5% w/w NaLG [5, 8]: 3.51 ± 0.93 μg/cm^2/24 h
- Cumulative Permeation of CP-336,156 over 24 Hours, Enhanced 1.5% w/w NaLG [5, 9]: 0.46 ± 0.16 μg/cm^2/24 h
- Cumulative Permeation of CP-336,156 over 24 Hours, Unenhanced ([5]; All Skins Mean ± SEM): 0.99 ± 0.85 μg/cm^2/24 h
- Cumulative Permeation of CP-336,156 over 24 Hours, Unenhanced ([5]; Skin 2A, 5 cells): 0.13 ± 0.09 μg/cm^2/24 h
- Cumulative Permeation of CP-336,156 over 24 Hours, Unenhanced [5, 8]: 2.70 ± 1.08 μg/cm^2/24 h
- Cumulative Permeation of CP-336,156 over 24 Hours, Unenhanced [5, 9]: 0.15 ± 0.09 μg/cm^2/24 h
- Enhancement Factor Q24 enhanced/Q24 unenhanced ([5]; All Skins Mean ± SEM): 2.2 and 2.21 ± 0.51
- Enhancement Factor Q24 enhanced/Q24 unenhanced ([5]; Skin 2A): 2.28
- Enhancement Factor Q24 enhanced/Q24 unenhanced ([5]; second skin source (name not given)): 1.30
- Enhancement Factor Q24 enhanced/Q24 unenhanced ([5]; third skin source (name not given)): 3.06
SMILES: Oc1ccc2c(c1)CC[C@H](c1ccccc1)[C@@H]2c1ccc(OCCN2CCCC2)cc1 [CP-336,156, lasofoxifene]
- bone loss [1]: prevent bone loss
- total serum cholesterol [3]: decreased
- effect on prostate [4]: did not affect prostate
- bone loss [6]: prevent bone loss
- uterine-stimulating effects [7]: without the uterine-stimulating effects
